Experimental data as given in publication PMC2726796 (Journal of the American Chemical Society, 2008).

What was measured:
[1] = target: T1, KtzS (Kutzneria sp. 744, UniProt A8CF73); experiment: flavin reductase activity of purified enzyme; type: biochemical
T1 sequence (A8CF73 1-174): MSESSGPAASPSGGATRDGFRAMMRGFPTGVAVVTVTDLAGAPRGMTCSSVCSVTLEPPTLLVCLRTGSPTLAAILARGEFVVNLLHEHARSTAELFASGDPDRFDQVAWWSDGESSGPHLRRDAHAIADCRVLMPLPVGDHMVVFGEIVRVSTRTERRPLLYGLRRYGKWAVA

[2] = substrate: N[C@@H](Cc1c[nH]c2c(Cl)cccc12)C(=O)O; experiment: coupled halogenation assay with flavin reductase; type: biochemical, Kutzneria sp. 744; conditions: FAD, NADH, excess KtzS or SsuE, chloride, O2
[3] = substrate: N[C@@H](Cc1c[nH]c2ccccc12)C(=O)O; experiment: coupled halogenation assay with flavin reductase; type: biochemical, Kutzneria sp. 744; conditions: FAD, NADH, excess KtzS or SsuE, chloride, O2

For `NC(=O)C1=CN([C@@H]2O[C@H](COP(=O)(O)OP(=O)(O)OC[C@H]3O[C@@H](n4cnc5c(N)ncnc54)[C@H](O)[C@@H]3O)[C@@H](O)[C@H]2O)C=CC1` [NADH], the “flavin reductase activity of purified enzyme” value ([1]; FAD as acceptor) was “shown to be an NADH-utilizing FAD reductase”.

With `Cc1cc2nc3c(=O)[nH]c(=O)nc-3n(C[C@H](O)[C@H](O)[C@H](O)COP(=O)(O)OP(=O)(O)OC[C@H]3O[C@@H](n4cnc5c(N)ncnc54)[C@H](O)[C@@H]3O)c2cc1C` [FAD] the “flavin reductase activity of purified enzyme” value ([1]; NADH as reductant) was “shown to be an NADH-utilizing FAD reductase”.

B1: KtzR (Kutzneria sp. 744) (protein)
chain: MVIVGGGTAGWMTAAYLKTAFGDRLSITVVESSRIGTIGVGEATFSDIQHFFQFLNLREQDWMPACNATYKLGIRFENWRHVGHHFYQPFEQIRPVYGFPLTDWWLHDAPTDRFDTDCFVMPNLCEAGRSPRHLDGTLADEDFVEEGDELANRTMSEHQGKSQFPYAYHFEAALLAKFLTGYAVDRGVEHVVDDVLDVRLDQRGWIEHVVTAEHGEIHGDLFVDCTGFRGLLLNKALGVPFVSYQDTLPNDSAVALQVPLDMQRRGIVPNTTATAREAGWIWTIPLFGRVGTGYVYAKDYLSPEEAERTLREFVGPAAADVEANHIRMRIGRSQESWRNNCVAIGLSSGFVEPLESTGIFFIHHAIEQLVKHFPAADWNPKSRDMYNSAVAHVMDGIREFLVIHYRGAARADNQYWRDTKTRPLPDGLAERIECWQTQLPDTETIYPYYHGLPPYSYMCILMGGGAIRTPASAALALTDQGAAQKEFAAVRDRAAQLRDTLPSHYEYLARMRGLDV
For B1, the Km [2] was 114 µM and the Km [3] was 808 µM.
